# Measured values as given in article PMC9362525 (Diabetologia, 2022).
# Read-outs that look alike come from different tables or passages of the source.
# Legend:
# [1] = assay type: in vivo, human; conditions: 6-week treatment period
# HFD-fed C57BL/6J mice = assay type: in vivo, mouse; conditions: 8 weeks
# [2] = tested on: participants with type 2 diabetes; assay type: in vivo, human; conditions: 32 weeks
# [3] = tested on: patients with T2D and established CVD; assay type: in vivo, human
# HHTg-OVX rats = assay type: in vivo, rat; conditions: 12.5 μg/kg b.wt./day s.c., 12 weeks
# db/db mice = assay type: in vivo, mouse
# [4] = tested on: patients with type 2 diabetes; assay type: in vivo, human; conditions: Ipr 50 mg or Met 1000 mg, 24 weeks, n=15 per group
# human islets = assay type: cell-based
# human β-cells = assay type: cell-based
# perifused human islets = assay type: cell-based
# patients with T2D = assay type: in vivo, human
# patients with T2D and HF = assay type: in vivo, human
# HUVECs = assay type: cell-based, human
# HHTg rats = assay type: in vivo, rat; conditions: 10 mg/kg/day, 8 weeks
# [5] = tested on: patients with T2D and metabolic syndrome; design: species or system human; conditions: in vivo
# patients with T2DM = assay type: in vivo, human
# [6] = assay type: in vivo, mice; conditions: 40 mg/kg
# isolated human islets = assay type: cell-based; conditions: metformin added after 0.5 day, n=7
# [7] = tested on: male C57BL/6 mice on 45% HFD; conditions: mouse, in vivo
# [8] = tested on: adults with type 2 diabetes; assay type: in vivo, human
# EndocBH5 = assay type: cell-based, human; conditions: 96 well plates
# HCAECs = assay type: cell-based, human
# [9] = tested on: cultured subcutaneous adipocytes; assay type: cell-based; conditions: preliminary data
# [10] = tested on: thromboxane receptor, primary human myotubes; assay type: cell-based
# [11] = tested on: isolated mouse skeletal muscle (EDL and soleus); assay type: cell-based; conditions: [14C]-glucose, n=7-8
# mice = assay type: in vivo, mouse; conditions: acute administration, n=7-8
# cultured human podocytes = assay type: cell-based
# [12] = design: species or system human; conditions: in vivo
# [13] = tested on: isolated human adipocytes; assay type: cell-based; conditions: recombinant protein
# LADA individuals [14] = conditions: for GAD65 stimulation index of PBMC proliferation: LADA, median (Q1, Q3)
# LADA individuals [15] = conditions: corresponding findings in type 1 diabetes (n=56), ref not given, cited from earlier work
# [16] = tested on: people with type 2 diabetes; assay type: in vivo, human; conditions: 15 mg, 28 weeks
compound,measurement,setting,value
"CCOc1ccc(Cc2cc([C@@H]3O[C@H](CO)[C@@H](O)[C@H](O)[C@H]3O)ccc2Cl)cc1 [DAPA, dapagliflozin]",mild hypoglycemia occurrence,[1],once
same,fractional renal extraction of glucose,T2DM and NGT subjects; NGT,1.62± 1.4
same,renal glucose uptake,T2DM and NGT subjects; NGT,0.27 ± 0.08 mg/kg.min
same,fractional renal extraction of glucose,T2DM and NGT subjects; T2DM,2.99±1.0
same,renal glucose uptake,T2DM and NGT subjects; T2DM,0.347 ± 0.06 mg/kg.min
"OC[C@H]1O[C@@H](c2ccc(Cl)c(Cc3ccc(O[C@H]4CCOC4)cc3)c2)[C@H](O)[C@@H](O)[C@@H]1O [EMPA, Empagliflozin]",final body weight,"HFD-fed C57BL/6J mice; 10 mg/kg/day oral gavage, HFD",44.87 ± 1.42 g
same,FFA,HFD-fed C57BL/6J mice; 10 mg/kg/day,746.30 ± 56.59 µmol/L
same,UACR,HFD-fed C57BL/6J mice; 10 mg/kg/day,21.01 ± 1.99 µg/µmol
same,fat mass,HFD-fed C57BL/6J mice; 10 mg/kg/day,11.75 ± 0.78 g
same,fat/weight,HFD-fed C57BL/6J mice; 10 mg/kg/day,26.08 ± 1.09%
same,triglyceride,HFD-fed C57BL/6J mice; 10 mg/kg/day,29.31 ± 2.71 mg/dL
same,change in GFR from baseline and compared to placebo,[2],-18 mL/min
same,OR (95% CI) for improved risk vs placebo,[3]; all baseline groups,"1.56 (1.30, 1.86)"
same,OR (95% CI) for worsening risk vs placebo,[3]; all baseline groups,"0.70 (0.62, 0.78)"
"C[C@]12CC[C@@H]3c4ccc(O)cc4CC[C@H]3[C@@H]1CC[C@@H]2O [Estradiol, 17-β estradiol]","change in ectopic TAG deposition, kidneys",HHTg-OVX rats,-23%
same,"change in ectopic TAG deposition, liver",HHTg-OVX rats,-16%
C[C@H]1N=C(N(C)C)N=C(N)N1 [Imeglimin],random blood glucose levels vs vehicle,"db/db mice; 150 mg/kg B.I.D. oral, age 6-10 weeks",significantly lower
same,loss of RI intensity in the pancreas (SPECT/CT),db/db mice; at 10 weeks,significantly attenuated
"CN(C)C(=N)N=C(N)N [Met, Metformin]",change in visceral fat area,[4],-4.7%
same,caspase 3/7 activity,human islets; cytokines 48 h plus 2.4 μg/ml,1.2±0.1
same,insulin stimulation index,"human islets; cytokines (IL-1β 50 U/ml + IFN-γ 1000 U/ml) 48 h plus 2.4 μg/ml, mean±SEM",4.7±1.6
NC(=O)N1c2ccccc2C=Cc2ccccc21 [carbamazepine],cytokine- and ER stress-induced β-cell death,human β-cells,protected
same,glucose-stimulated insulin secretion,perifused human islets,moderately reduced
OC[C@H]1O[C@@H](c2ccc(Cl)c(Cc3ccc(O[C@H]4CCOC4)cc3)c2)[C@H](O)[C@@H](O)[C@@H]1O [empagliflozin],"∆LVEF Rest, E vs I",patients with T2D; cardiac MRI,-0±2%
same,"∆LVEF Rest, treatment vs washout",patients with T2D; cardiac MRI,2 ±1%
same,"∆LVPFR Rest, E vs I",patients with T2D; cardiac MRI,-55 ± 19 mL/s
same,"∆LVPFR Rest, treatment vs washout",patients with T2D; cardiac MRI,-38 ± 19 mL/s
same,"∆LVEF Stress, E vs I",patients with T2D; chronotropic stress,1±1%
same,"∆LVEF Stress, treatment vs washout",patients with T2D; chronotropic stress,-1±2%
same,"∆LVPFR Stress, E vs I",patients with T2D; chronotropic stress,-11 ± 47 mL/s
same,"∆LVPFR Stress, treatment vs washout",patients with T2D; chronotropic stress,-4 ± 45 mL/s
same,3-OH butyrate,"patients with T2D; fasting, end of 5 weeks",0.27 ± 0.03 mM
same,FFAs,"patients with T2D; fasting, end of 5 weeks",0.60 ± 0.03 mM
same,serum insulin,"patients with T2D; fasting, end of 5 weeks",103 ± 14 pM
same,reduction of KIM-1 levels compared to placebo,"patients with T2D and HF; 25 mg, week 48, EFFORT-2",38%
same,LVEDD difference from placebo,"patients with T2D and HF; week 24, EFFORT-1",-7.88
same,LVEDD difference from placebo,"patients with T2D and HF; week 48, EFFORT-1",-4.40
same,posterior wall diameter difference from placebo,"patients with T2D and HF; week 48, EFFORT-2",-2.29
same,expression of inflammatory markers,HUVECs,did not significantly impact
same,patients with improvement in KDIGO CKD risk,[3]; high baseline risk group,27.1%
same,patients with worsening KDIGO CKD risk,[3]; high risk baseline group,23.3%
same,patients with worsening KDIGO CKD risk,"[3]; low risk baseline group, 10, 25 mg pooled",26.0%
same,patients with improvement in KDIGO CKD risk,[3]; moderate baseline risk group,24.6%
same,patients with worsening KDIGO CKD risk,[3]; moderate risk baseline group,24.4%
same,patients with improvement in KDIGO CKD risk,[3]; very high baseline risk group,26.2%
same,non-fasting glucose and insulin,HHTg rats,markedly decreased
same,serum triglycerides levels,HHTg rats,reduced
CC(C)OC(=O)C(C)(C)Oc1ccc(C(=O)c2ccc(Cl)cc2)cc1 [fenofibrate],"HR for primary outcome, patients with retinopathy at baseline",[5],0.86
Cc1ccc(S(=O)(=O)NC(=O)NN2CC3CCCC3C2)cc1 (stereo not drawn) [gliclazide],incidence of severe hypoglycaemia,patients with T2DM; female,0.75 %/year
same,incidence of severe hypoglycaemia,patients with T2DM; male,0.41 %/year
same,insulin secretion after the OGTT,[6],increased
CN(C)C(=N)N=C(N)N [metformin],reduction of insulin secretion vs 1 day palmitate only,isolated human islets,18%
same,loss of excess body weight vs untreated mice,[7],30%
CC[C@H](C)[C@H](NC(=O)[C@H](CC(C)C)NC(=O)[C@H](Cc1c[nH]c2ccccc12)NC(=O)[C@H](CCC(N)=O)NC(=O)[C@@H](NC(=O)[C@H](Cc1ccccc1)NC(=O)[C@H](C)NC(=O)[C@H](CCCCNC(=O)COCCOCCNC(=O)COCCOCCNC(=O)CC[C@H](NC(=O)CCCCCCCCCCCCCCCCCCC(=O)O)C(=O)O)NC(=O)[C@H](CCC(N)=O)NC(=O)[C@H](C)NC(=O)[C@@H](NC(=O)[C@H](CCCCN)NC(=O)[C@H](CC(=O)O)NC(=O)[C@H](CC(C)C)NC(=O)C(C)(C)NC(=O)[C@@H](NC(=O)[C@H](CO)NC(=O)[C@H](Cc1ccc(O)cc1)NC(=O)[C@H](CC(=O)O)NC(=O)[C@H](CO)NC(=O)[C@@H](NC(=O)[C@H](Cc1ccccc1)NC(=O)[C@@H](NC(=O)CNC(=O)[C@H](CCC(=O)O)NC(=O)C(C)(C)NC(=O)[C@@H](N)Cc1ccc(O)cc1)[C@@H](C)O)[C@@H](C)O)[C@@H](C)CC)[C@@H](C)CC)C(C)C)C(=O)N[C@@H](C)C(=O)NCC(=O)NCC(=O)N1CCC[C@H]1C(=O)N[C@@H](CO)C(=O)N[C@@H](CO)C(=O)NCC(=O)N[C@@H](C)C(=O)N1CCC[C@H]1C(=O)N1CCC[C@H]1C(=O)N1CCC[C@H]1C(=O)N[C@@H](CO)C(N)=O [tirzepatide],MD in triglycerides vs GLP-1 receptor agonists,"[8]; 5 mg once weekly, random effects",-12.51 mg/dL
same,MD in triglycerides vs GLP-1 receptor agonists,[8]; 15 mg once weekly,-24.98 mg/dL
same,increased insulin secretion over high glucose,EndocBH5,> 3 fold
COc1ccc(C(=O)O[C@H]2CC[C@@]3(C)[C@@H]4CC[C@H]5[C@]6(O)C[C@H](O)[C@@]7(O)[C@@H](CN8C[C@@H](C)CC[C@H]8[C@@]7(C)O)[C@]6(O)C[C@@]53O[C@]24O)cc1OC [veratridine],cytokine- and ER stress-induced β-cell death,human β-cells,increased cell death
same,glucose-stimulated insulin secretion,perifused human islets,increased insulin secretion
CCL5,endothelial function,HCAECs,displayed endothelial dysfunction
Fas ligand [FasL],isoproterenol-induced UCP1 protein levels,[9],decreased
I-BOP,increase in glucose incorporation into glycogen,[10]; n=4,+398%
same,increase in glucose oxidation,[10]; n=5,+28%
same,increase in glucose uptake,[10]; n=5,+53%
same,increase in ex-vivo skeletal muscle glucose oxidation,[11],+118%
same,change in glucose tolerance AUC,mice,-34%
TGF-β,suppression of Tcf21 expression,cultured human podocytes,58%
insulin glargine 300 U/mL [Gla-300],Rates of hypoglycaemia at <3.9 to ≥3.0 mmol/L and <3.0 mmol/L,[12],did not differ between groups
oncostatin-M,stimulation of basal lipolysis,[13],+47%
rhGAD65,GAD65 stimulation index of PBMC proliferation,"LADA individuals [14]; 2 months from baseline, 3 injections of 4 μg","2.16 (1.25, 3.06)"
same,GAD65 stimulation index of PBMC proliferation,LADA individuals [14]; 5 months from baseline,"2.34 (1.81, 3.58)"
same,postprandial 2 hour C-peptide,LADA individuals [14]; in vivo,"1.45 (1.25, 1.85) nmol/L"
same,serious adverse events,LADA individuals [14]; interim analysis at 5 months,no treatment-related serious adverse events
same,GAD65 stimulation index of PBMC proliferation,LADA individuals [15]; 2 months,"2.77 (1.96, 6.05)"
same,GAD65 stimulation index of PBMC proliferation,LADA individuals [15]; 5 months,"3.19 (2.02, 6.19)"
tirzepatide [TZP],"insulin sensitivity (M-value), first and second phase ISR and beta-cell glucose sensitivity during EGC and HGC",[16],more than SEMA and placebo
